Experimental data from patent publication US9987276B2 (Celgene CAR LLC, priority 2008, dated 2018).
Like-named read-outs stand apart in the source and are kept apart here.

Legend:
BTK [1] = target: T1, BTK (Homo sapiens (Human), UniProt Q06187); test: Omnia assay for potency assessment against BTK; type: biochemical; details: [BTK]=5 nM, Omnia assay; read-out: BTK Inhibition (IC50)
Method: The modified BTK-optimized reagent conditions for the above protocol are:
[BTK]=5 nM, [ATP]=[…], [Y5-Sox]=[…] (ATP KMapp˜[…]).

BTK [2] = target: T1, BTK; test: BTK Ramos cellular assay (PLCγ2 phosphorylation); type: cell-based; details: Ramos cells, 1 hour compound, anti-IgM stimulation, p-PLCγ2; read-out: BTK Inhibition (IC50), BTK Ramos cellular inhibition
ITK = ITK (Homo sapiens (Human), UniProt Q08881); test: Omnia assay for potency assessment against active forms of ITK kinase; type: biochemical; details: [ITK]=10 nM, [ATP]=25, [Y6-Sox]=10 μM; read-out: ITK Inhibition
ITK, sequence (Q08881 whole entry): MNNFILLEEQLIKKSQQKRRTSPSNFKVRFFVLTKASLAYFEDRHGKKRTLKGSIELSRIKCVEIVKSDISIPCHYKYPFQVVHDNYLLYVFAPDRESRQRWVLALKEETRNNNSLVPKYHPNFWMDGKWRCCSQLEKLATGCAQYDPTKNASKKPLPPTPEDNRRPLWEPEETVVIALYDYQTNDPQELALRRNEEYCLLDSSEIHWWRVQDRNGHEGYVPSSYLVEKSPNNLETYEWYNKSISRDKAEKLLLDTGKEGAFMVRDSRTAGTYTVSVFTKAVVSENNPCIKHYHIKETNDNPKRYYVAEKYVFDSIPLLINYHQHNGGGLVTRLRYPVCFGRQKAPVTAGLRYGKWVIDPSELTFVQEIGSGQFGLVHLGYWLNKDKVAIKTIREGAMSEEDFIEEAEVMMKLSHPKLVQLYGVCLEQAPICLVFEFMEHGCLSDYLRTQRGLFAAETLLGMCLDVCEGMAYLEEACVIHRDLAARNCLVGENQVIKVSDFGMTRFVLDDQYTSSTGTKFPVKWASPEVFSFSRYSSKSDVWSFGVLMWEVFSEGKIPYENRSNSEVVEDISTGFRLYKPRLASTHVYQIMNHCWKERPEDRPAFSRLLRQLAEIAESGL
Method: [ITK]=10 nM, [ATP]=25 [Y6-Sox]=10 μM (ATP KMapp=33 μM).

BMX = BMX (Homo sapiens (Human), UniProt P51813); test: Omnia assay for potency assessment against active forms of BMX kinase; type: biochemical; details: [BMX]=2.5 nM, [ATP]=100 μM, [Y5-Sox]=7.5 μM; read-out: BMX Inhibition
BMX, sequence (P51813 whole entry): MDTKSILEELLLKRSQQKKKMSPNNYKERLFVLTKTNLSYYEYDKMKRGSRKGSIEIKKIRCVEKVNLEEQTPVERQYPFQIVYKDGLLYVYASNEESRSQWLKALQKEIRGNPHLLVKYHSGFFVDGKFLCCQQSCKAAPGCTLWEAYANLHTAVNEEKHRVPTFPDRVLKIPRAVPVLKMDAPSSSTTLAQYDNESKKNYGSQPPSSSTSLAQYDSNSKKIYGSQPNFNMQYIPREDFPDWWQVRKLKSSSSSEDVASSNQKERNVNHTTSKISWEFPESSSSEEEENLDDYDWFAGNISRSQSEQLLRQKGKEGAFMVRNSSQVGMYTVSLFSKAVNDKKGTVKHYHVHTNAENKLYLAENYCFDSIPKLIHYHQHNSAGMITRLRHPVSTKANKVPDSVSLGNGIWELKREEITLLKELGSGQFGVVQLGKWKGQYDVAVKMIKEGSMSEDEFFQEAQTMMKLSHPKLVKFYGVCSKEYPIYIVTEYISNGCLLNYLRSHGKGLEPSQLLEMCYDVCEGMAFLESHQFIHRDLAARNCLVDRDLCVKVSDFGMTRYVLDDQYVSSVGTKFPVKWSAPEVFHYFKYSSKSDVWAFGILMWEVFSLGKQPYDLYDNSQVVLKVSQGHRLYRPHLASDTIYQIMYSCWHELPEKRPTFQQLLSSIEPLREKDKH
Method: Briefly, 10× stocks of EGFR-WT (PV3872) from Invitrogen and EGFR-T790M/L858R (40350) from BPS Bioscience, San Diego, Calif., 1.13×ATP (AS001A) and appropriate Tyr-Sox conjugated peptide substrates (KCZ1001) were prepared in 1× kinase reaction buffer consisting of 20 mM Tris, pH 7.5, 5 mM MgCl2, 1 mM EGTA, 5 mM β-glycerophosphate, 5% glycerol (10× stock, KB002A) and 0.2 mM DTT (DS001A).
This example describes continuous-read kinase assays to measure inherent potency of compound against active forms of BMX enzymes as described in Example 251 above except that the modified BMX-optimized reagent conditions are:
[BMX]=2.5 nM, [ATP]=100 μM, [Y5-Sox]=7.5 μM (ATP KMapp=107 μM).

EGFR-WT = EGFR-WT (Homo sapiens (Human), UniProt P00533); test: Omnia assay for potency assessment against EGFR (WT)
EGFR-WT, sequence (P00533 668-1210): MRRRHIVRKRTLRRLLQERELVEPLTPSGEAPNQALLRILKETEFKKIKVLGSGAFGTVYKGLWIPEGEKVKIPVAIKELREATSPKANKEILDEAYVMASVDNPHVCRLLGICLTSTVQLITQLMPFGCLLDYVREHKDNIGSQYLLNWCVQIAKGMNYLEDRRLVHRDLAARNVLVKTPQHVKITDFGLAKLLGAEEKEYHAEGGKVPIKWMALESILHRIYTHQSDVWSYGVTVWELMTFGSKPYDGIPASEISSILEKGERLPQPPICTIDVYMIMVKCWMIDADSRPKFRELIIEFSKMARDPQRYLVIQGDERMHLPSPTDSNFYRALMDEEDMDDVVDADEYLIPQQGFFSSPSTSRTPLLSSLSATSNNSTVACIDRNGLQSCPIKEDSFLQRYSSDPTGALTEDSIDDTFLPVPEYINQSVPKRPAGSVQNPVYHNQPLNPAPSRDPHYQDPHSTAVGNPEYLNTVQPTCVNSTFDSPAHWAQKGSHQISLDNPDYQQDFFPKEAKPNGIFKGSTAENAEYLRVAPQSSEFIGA

EGFR-T790M/L858R = EGFR-T790M/L858R (Homo sapiens (Human), UniProt P00533, L858R/T790M); test: Omnia assay for potency assessment against EGFR (T790M/L858R)
EGFR-T790M/L858R, sequence (P00533 25-1210 T790M/L858R): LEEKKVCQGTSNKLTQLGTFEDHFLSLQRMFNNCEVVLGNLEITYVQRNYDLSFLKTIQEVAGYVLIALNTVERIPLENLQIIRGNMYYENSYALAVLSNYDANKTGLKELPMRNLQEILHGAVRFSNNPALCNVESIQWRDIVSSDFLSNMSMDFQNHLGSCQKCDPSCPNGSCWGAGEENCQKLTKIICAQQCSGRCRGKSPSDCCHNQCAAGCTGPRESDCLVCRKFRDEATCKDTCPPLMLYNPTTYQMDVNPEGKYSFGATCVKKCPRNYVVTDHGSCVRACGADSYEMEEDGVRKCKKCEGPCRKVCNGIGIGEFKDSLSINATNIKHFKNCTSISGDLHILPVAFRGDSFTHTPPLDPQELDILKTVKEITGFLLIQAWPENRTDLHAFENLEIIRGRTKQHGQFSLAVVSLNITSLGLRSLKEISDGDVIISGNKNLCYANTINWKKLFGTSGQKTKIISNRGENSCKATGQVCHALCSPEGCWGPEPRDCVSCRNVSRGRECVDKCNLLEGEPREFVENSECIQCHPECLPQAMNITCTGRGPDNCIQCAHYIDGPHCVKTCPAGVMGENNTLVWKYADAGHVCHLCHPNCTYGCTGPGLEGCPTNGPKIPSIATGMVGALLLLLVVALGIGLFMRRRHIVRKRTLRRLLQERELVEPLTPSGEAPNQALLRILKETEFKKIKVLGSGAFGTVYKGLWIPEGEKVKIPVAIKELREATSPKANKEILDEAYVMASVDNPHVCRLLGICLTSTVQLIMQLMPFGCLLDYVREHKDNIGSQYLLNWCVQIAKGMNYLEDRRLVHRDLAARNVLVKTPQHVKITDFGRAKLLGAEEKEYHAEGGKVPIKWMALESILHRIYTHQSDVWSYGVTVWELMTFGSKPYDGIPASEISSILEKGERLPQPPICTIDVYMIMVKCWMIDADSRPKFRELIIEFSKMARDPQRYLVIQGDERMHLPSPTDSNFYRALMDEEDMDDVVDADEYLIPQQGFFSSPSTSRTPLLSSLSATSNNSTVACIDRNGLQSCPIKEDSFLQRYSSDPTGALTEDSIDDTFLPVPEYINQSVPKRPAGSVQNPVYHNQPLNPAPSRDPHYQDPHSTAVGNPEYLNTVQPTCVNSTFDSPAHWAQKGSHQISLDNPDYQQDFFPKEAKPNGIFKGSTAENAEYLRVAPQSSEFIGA

BTK [3] = target: T1, BTK; test: Washout experiment with Ramos cells; type: cell-based; details: 100 nM compound for 1 hour, then washout
Method: Ramos cells were serum starved for one hour in RPMI media+1% glutamine at 37° C. After starvation, Ramos cells were treated with 100 nM compound diluted in serum free RPMI media for 1 hour. After compound treatment, the media was removed and cells were washed with compound-free media. Subsequently, Ramos cells were washed every 2 hours and resuspended in fresh compound-free media. Cells were collected at specified timepoints, treated with 1 ug anti-human IgM (Southern Biotech cat #2022-01) for 10 minutes on ice to induce BCR signaling and then washed in PBS. Ramos cells were then lysed in Cell Extraction Buffer (Invitrogen FNN0011) supplemented with Roche complete protease inhibitor tablets (Roche 11697498001) and phosphatase inhibitors (Roche 04 906 837 001) and 18 ug total protein lysate was loaded in each lane. Inhibition of BTK kinase activity was assayed by measuring its substrate (PLCγ2) phosphorylation by western blot with phospho-specific antibodies from Cell Signaling Technologies cat #3871. The results of this experiment with compounds I-2, I-4 and I-7 are depicted in FIGS. 1, 2 and 3.

[4] = read-out: EGFR (wild type inhibition), EGFR wild type
[5] = read-out: EGFR (T790M/L858R), EGFR mutant T790M/L858R

T1 sequence (Q06187 whole entry): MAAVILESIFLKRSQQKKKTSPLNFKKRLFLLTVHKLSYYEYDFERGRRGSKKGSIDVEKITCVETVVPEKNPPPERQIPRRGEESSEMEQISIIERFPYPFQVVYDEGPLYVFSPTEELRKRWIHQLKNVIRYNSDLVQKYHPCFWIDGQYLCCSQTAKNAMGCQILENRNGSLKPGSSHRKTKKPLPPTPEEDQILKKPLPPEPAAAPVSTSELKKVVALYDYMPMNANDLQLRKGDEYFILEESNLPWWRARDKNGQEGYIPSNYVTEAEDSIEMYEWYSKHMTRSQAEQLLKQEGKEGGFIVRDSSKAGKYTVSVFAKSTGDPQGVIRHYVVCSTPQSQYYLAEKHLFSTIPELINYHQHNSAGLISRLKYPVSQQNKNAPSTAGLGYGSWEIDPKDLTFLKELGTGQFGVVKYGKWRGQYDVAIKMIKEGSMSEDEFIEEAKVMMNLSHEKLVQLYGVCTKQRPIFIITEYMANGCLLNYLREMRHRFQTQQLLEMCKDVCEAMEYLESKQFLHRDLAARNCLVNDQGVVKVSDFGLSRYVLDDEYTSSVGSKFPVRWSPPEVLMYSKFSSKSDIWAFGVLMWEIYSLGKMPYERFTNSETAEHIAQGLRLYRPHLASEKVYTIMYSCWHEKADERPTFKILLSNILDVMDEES

Row | Structure (SMILES) | IC50 (BTK [1]) | IC50 (BTK [2]) | IC50 (ITK) | IC50 (BMX) | IC50 (EGFR-WT; [4]) | IC50 (EGFR-T790M/L858R; [5]) | IC50 (EGFR-WT) | BTK Inhibition Type (BTK [3]) | IC50 (EGFR-T790M/L858R)
1 | C=CC(=O)Nc1cccc(Nc2nc(Nc3cccc(S(N)(=O)=O)c3)ncc2C)c1 [Compound I-33, N-(3-(5-methyl-2-(3-sulfamoylphenylamino)pyrimidin-4-ylamino)phenyl)acrylamide] | < 10 nM | < 10 nM | < 10 nM | < 10 nM | < 10 nM | – | – | – | –
2 | C=CC(=O)Nc1cccc(Oc2nc(Nc3ccc(OCCOC)cc3)ncc2C2CC2)c1 [Compound I-131, N-(3-(5-cyclopropyl-2-(4-(2-methoxyethoxy)phenylamino)pyrimidin-4-yloxy)phenyl)acrylamide] | < 10 nM | < 10 nM | < 10 nM | < 10 nM | < 10 nM | – | – | – | –
3 | C=CC(=O)Nc1cccc(Nc2nccc(Nc3cccc(C)c3)n2)c1 [Compound I-1, N-(3-(4-(m-tolylamino)pyrimidin-2-ylamino)phenyl)acrylamide] | < 10 nM | – | 100 to 1000 nM | – | < 10 nM | < 10 nM | – | – | –
4 | C=CC(=O)N1CCC[C@@H](Nc2nc(Nc3cccc(OCCN4CCOCC4)c3)ncc2F)C1 [Compound I-135, (R)-1-(3-(5-fluoro-2-(3-(2-morpholinoethoxy)phenylamino)pyrimidin-4-ylamino)piperidin-1-yl)prop-2-en-1-one] | < 10 nM | 10 to 100 nM | 10 to 100 nM | < 10 nM | – | – | 10 to 100 nM | – | –
5 | C=CC(=O)N1CCCC(Nc2nc(Nc3ccccc3)ncc2C)C1 (centres unmarked) [Compound I-27] | < 10 nM | 10 to 100 nM | 10 to 100 nM | < 10 nM | – | – | 10 to 100 nM | – | –
6 | C=CC(=O)Nc1cccc(Nc2nc(Nc3ccccc3)ncc2C(F)(F)F)c1 [Compound I-245, N-(3-(5-trifluoromethyl-2-(phenylamino)pyrimidin-4-ylamino)phenyl)acrylamide] | < 10 nM | < 10 nM | < 10 nM | < 10 nM | < 10 nM | – | – | – | –
7 | C=CC(=O)Nc1cccc(Oc2nc(Nc3ccccc3)ncc2F)c1 [Compound I-228, N-(3-(5-fluoro-2-(phenylamino)pyrimidin-4-yloxy)phenyl)acrylamide] | < 10 nM | < 10 nM | 10 to 100 nM | – | – | – | 10 to 100 nM | irreversible | –
8 | C=CC(=O)Nc1cccc(Nc2nc(Nc3cc(OC)c(OC)c(OC)c3)ncc2F)c1 [Compound I-133, 4-(3-acrylamidophenylamino)-5-fluoro-2-(3,4,5-trimethoxyphenylamino)-pyrimidine] | < 10 nM | 10 to 100 nM | 100 to 1000 nM | < 10 nM | – | – | 100 to 1000 nM | – | –
9 | C=CC(=O)Nc1cccc(Nc2nc(Nc3ccccc3)ncc2C(N)=O)c1 [Compound I-230, 4-(3-acrylamidophenylamino)-2-(phenylamino)pyrimidine-5-carboxamide] | < 10 nM | < 10 nM | < 10 nM | – | – | – | – | irreversible | –
10 | C=CC(=O)N1CCc2cc(Nc3nc(Nc4cccc(S(N)(=O)=O)c4)ncc3C)ccc2C1 [Compound I-40, 3-(4-(2-acryloyl-1,2,3,4-tetrahydroisoquinolin-6-ylamino)-5-methylpyrimidin-2-ylamino)benzenesulfonamide] | < 10 nM | 10 to 100 nM | < 10 nM | < 10 nM | – | – | – | – | –
11 | C=CC(=O)Nc1ccc(C)c(Nc2ncc(C)c(Nc3cccc(C)c3)n2)c1 [Compound I-8, N-(4-methyl-3-(5-methyl-4-(m-tolylamino)pyrimidin-2-ylamino)phenyl)acrylamide] | < 10 nM | 100 to 1000 nM | – | – | < 10 nM | < 10 nM | – | – | –
12 | C=CC(=O)N1CCOc2ccc(Nc3nc(Nc4ccc5c(c4)CC(=O)N5)ncc3C(C)=O)cc21 [Compound I-129, 5-[5-Acetyl-4-(4-acryloyl-3,4-dihydro-2H-benzo[1,4]oxazin-6-ylamino)-pyrimidin-2-ylamino]-1,3-dihydro-indol-2-one] | < 10 nM | < 10 nM | < 10 nM | < 10 nM | – | – | 10 to 100 nM | – | –
13 | C=CC(=O)Nc1ccc(Nc2nc(Nc3ccccc3)ncc2C)cc1 [Compound I-39, N-(4-(5-methyl-2-(phenylamino)pyrimidin-4-ylamino)phenyl) acrylamide] | < 10 nM | 10 to 100 nM | 100 to 1000 nM | < 10 nM | 1000 to 10000 nM | 100 to 1000 nM | – | – | –
14 | C=CC(=O)Nc1cccc(Nc2nc(Nc3cccc(OC)c3)ncc2C(F)(F)F)c1 [Compound I-242, N-(3-(5-trifluoromethyl-2-(3-methoxyphenylamino)pyrimidin-4-ylamino)phenyl)acrylamide] | < 10 nM | < 10 nM | < 10 nM | – | – | – | 10 to 100 nM | irreversible | –
15 | C=CC(=O)Nc1cccc(Nc2nc(Nc3ccc4c(c3)N(C)CCO4)ncc2F)c1 [Compound I-126, N-(3-(2-(4-methyl-2,3-dihydrobenzo[1,4]oxazin-6-yl)amino-5-fluoropyrimidin-4-ylamino)phenyl)acrylamide] | < 10 nM | 10 to 100 nM | 10 to 100 nM | < 10 nM | – | – | 10 to 100 nM | – | –
17 | C=CC(=O)Nc1cccc(Nc2ncc(C)c(Nc3ccccc3)n2)c1 [Compound I-5, N-(3-(5-methyl-4-(phenylamino)pyrimidin-2-ylamino)phenyl) acrylamide] | < 10 nM | – | – | – | < 10 nM | < 10 nM | – | – | –
18 | C=CC(=O)Nc1cccc(Nc2ncc(C)c(Nc3ccc(Oc4ccccc4)cc3)n2)c1 [Compound I-23, N-(3-(5-methyl-4-(4-phenoxyphenylamino)pyrimidin-2-ylamino)phenyl)acrylamide] | – | – | – | – | – | – | 100 to 1000 nM | – | 10 to 100 nM
19 | C=CC(=O)Nc1cccc(Nc2nc(Nc3ccc(OC)c(OC)c3)ncc2F)c1 [Compound I-134, 4-(3acrylamidophenylamino)-5-fluoro-2-(3,4-dimethoxyphenylamino)-pyrimidine] | < 10 nM | 10 to 100 nM | 10 to 100 nM | < 10 nM | – | – | 10 to 100 nM | – | –
20 | C=CC(=O)Nc1cccc(Nc2nc(Nc3cccc(OCCCNC(=O)OC(C)(C)C)c3)ncc2C)c1 [Compound I-45, tert-butyl 3-(3-(4-(3-acrylamidophenylamino)-5-methylpyrimidin-2-ylamino)phenoxy)propylcarbamate] | < 10 nM | < 10 nM | 10 to 100 nM | < 10 nM | – | – | 100 to 1000 nM | – | –
21 | C=CC(=O)Nc1cccc(Nc2nc(Nc3ccc(O[C@@H]4CCOC4)c(F)c3)ncc2F)c1 [Compound I-316, (R)—N-(3-(5-fluoro-2-(3-fluoro-4-(tetrahydrofuran-3-yloxy)phenylamino)pyrimidin-4-ylamino)phenyl)acrylamide] | < 10 nM | < 10 nM | 10 to 100 nM | – | – | – | 10 to 100 nM | – | –
22 | C=CC(=O)N1CCOc2ccc(Nc3nc(Nc4ccc(N5CCOCC5)cc4)ncc3C(C)=O)cc21 [Compound I-169, 1-{6-[5-Acetyl-2-(4-morpholin-4-yl-phenylamino)-pyrimidin-4-ylamino]-2,3-dihydro-benzo[1,4]oxazin-4-yl}-propenone] | < 10 nM | < 10 nM | < 10 nM | – | < 10 nM | – | – | – | –
